As usually defined, the logP is a log measure of how a compound divides between an organic and an aqueous phase.

A short description of data set [1]: logP by HPLC on reversed-phase column (EEC Directive 79/831 Annex V.A8). The class given is physicochemical. The conditions noted are these: 40° C., 0.1% aqueous formic acid and acetonitrile, linear gradient 10% to 90% acetonitrile. As for the experimental part:
In table 1, the logP values were determined in accordance with EEC Directive 79/831 Annex V.A8 by HPLC (High Performance Liquid Chromatography) on a reversed-phase column (C 18), using the method described below: Temperature: 40° C.; Mobile phases: 0.1% aqueous formic acid and acetonitrile; linear gradient from 10% acetonitrile to 90% acetonitrile. Calibration was carried out using unbranched alkan-2-ones (comprising 3 to 16 carbon atoms) with known logP values (determination of the logP values by the retention times using linear interpolation between two successive alkanones). lambda-max-values were determined using UV-spectra from 200 nm to 400 nm and the peak values of the chromatographic signals.

For the next data set, the system named is Pyrenophora teres. Description: in vivo preventive test on Pyrenophora teres (barley). The conditions noted are these: 500 ppm of active ingredient, evaluated 7-9 days after inoculation. As for the experimental part: Solvent: 49 parts by weight of N,N-dimethylformamide Emulsifier: 1 part by weight of alkylaryl polyglycol ether To produce a suitable preparation of active compound, 1 part by weight of active compound is mixed with the stated amounts of solvent and emulsifier, and the concentrate is diluted with water to the desired concentration. To test for preventive activity, young plants are sprayed with the preparation of active compound at the stated rate of application. One day after this treatment, the plants are inoculated with an aqueous spore suspension of Pyrenophora teres. The plants remain for 48 hours in an incubation cabinet at 22° C. and a relative atmospheric humidity of 100%. Then the plants are placed in a greenhouse at a temperature of approximately 20° C. and a relative atmospheric humidity of approximately 80%. The test is evaluated 7-9 days after the inoculation. 0% means an efficacy which corresponds to that of the untreated control while an efficacy of 100% means that no disease is observed.

Another data set concerns Alternaria solani. Description: in vivo preventive test on Alternaria solani (tomato). Particulars: 500 ppm of active ingredient, evaluated 7 days after inoculation. As for the experimental part:
Solvent: 49 parts by weight of N,N-dimethylformamide Emulsifier: 1 part by weight of Alkylarylpolyglycolether To produce a suitable preparation of active compound, 1 part by weight of active compound is mixed with the stated amounts of solvent and emulsifier, and the concentrate is diluted with water to the desired concentration. To test for preventive activity, young plants are sprayed with the preparation of active compound at the stated rate of application. One day after this treatment, the plants are inoculated with an aqueous spore suspension of Alternaria solani. The plants remain for one day in an incubation cabinet at approximately 22° C. and a relative atmospheric humidity of 100%. Then the plants are placed in an incubation cabinet at approximately 20° C. and a relative atmospheric humidity of 96%. The test is evaluated 7 days after the inoculation. 0% means an efficacy which corresponds to that of the untreated control while an efficacy of 100% means that no disease is observed.

Setting [2] is: HPLC on reversed-phase column (C 18).

In data set [1] (setting [2]), `Cn1nc(C(F)F)c(C(=O)N(Cc2cc(C(F)(F)F)nc3ccccc23)C2CC2)c1F` [Example 159] came in with a logP of 3.58. For the same molecule, the Efficacy in the data set on Pyrenophora teres is on record as 100%.

In the case of `Cn1nc(C(F)F)c(C(=O)N(Cc2cc(CC(C)(C)C)no2)C2CC2)c1Cl` [Example 107], in data set [1] (setting [2]), the logP is recorded as 3.31. Moreover, the Efficacy in the data set with Pyrenophora teres amounted to 80%.

Turning to `Cn1nc(C(F)F)c(C(=O)N(Cc2cc(-c3cc(F)c(F)c(F)c3)no2)C2CC2)c1Cl` [Example 166], the logP in data set [1] (HPLC, reversed-phase column (C 18)) is reported as 3.64. The same molecule displayed an Efficacy in the data set on Pyrenophora teres of 90%.

In data set [1] (setting [2]), `Cn1nc(C(F)F)c(C(=O)N(Cc2cc3ccccc3n2-c2ccccc2)C2CC2)c1Cl` [Example 156] came in with a logP of 4.13. In the data set on Pyrenophora teres, this molecule gave an Efficacy of 90%.

`CC(C)N(Cc1cnn(-c2ccc(Cl)cc2)c1)C(=O)c1c(C(F)F)nn(C)c1Cl` [Example 151]: the logP in data set [1] (setting [2]) turned out to be 3.39. In the data set with Pyrenophora teres, this molecule gave an Efficacy of 75%.

`CC(NC(=O)c1c(C(F)F)nn(C)c1F)c1cc2ccccc2s1` (racemic) [Example 82] came in with a logP in data set [1] (setting [2]) of 2.98. Besides, the Efficacy with Alternaria solani is given as 100%; in the data set with Pyrenophora teres, 90%.

Regarding `Cn1nc(C(F)F)c(C(=O)N(Cc2csc3ccccc23)C2CC2)c1Cl` [Example 89], the logP in data set [1] (setting [2]) is given as 3.41. The values for the Efficacy with Alternaria solani and in the data set with Pyrenophora teres were 80% and 95%, respectively.

Take `CC(c1cccc2ccsc12)N(C(=O)c1c(C(F)F)nn(C)c1Cl)C1CC1` (stereo not shown) [Example 92]: the logP in data set [1] (setting [2]) was found to be 3.61. This molecule returned an Efficacy in the data set on Pyrenophora teres of 100%.

In data set [1] (setting [2]), `Cc1cc(C(C)N(C(=O)c2c(C(F)F)nn(C)c2Cl)C2CC2)c(C)s1` (stereo not shown) [Example 49] showed a logP of 3.79. Further, the results for the Efficacy in the data set with Alternaria solani and in the data set on Pyrenophora teres were 80% and 95%, respectively.

Take `Cc1ccsc1CN(C(=O)c1c(C(F)F)nn(C)c1Cl)C1CC1` [Example 39]: the logP in data set [1] (setting [2]) was found to be 3.02. Also, the Efficacy stood at 95% with Alternaria solani and 100% with Pyrenophora teres.

For the molecule `Cn1nc(C(F)F)c(C(=O)N(Cc2cc(-c3cc(F)c(F)c(F)c3)no2)C2CC2)c1F` [Example 165], the logP in data set [1] (setting [2]) is on record as 3.53. The Efficacy in the data set with Alternaria solani and with Pyrenophora teres was 100% each time.

`Cn1nc(C(F)F)c(C(=O)N(Cc2csc3ccc(Cl)cc23)C2CC2)c1Cl` [Example 144]: in data set [1] (setting [2]), the logP is given as 3.83. The molecule further displayed an Efficacy in the data set with Pyrenophora teres of 100%.

With `Cn1nc(C(F)F)c(C(=O)N(Cc2cc(-c3ccccc3)no2)C2CC2)c1Cl` [Example 112], the logP in data set [1] (setting [2]) is on record as 3.04. This molecule gave an Efficacy in the data set with Pyrenophora teres of 95%.

`CC(NC(=O)c1c(C(F)F)nn(C)c1Cl)c1cc2ccccc2s1` (racemic) [Example 81] came in with a logP in data set [1] (setting [2]) of 3.13. Moreover, the Efficacy was 100% in the data set on Alternaria solani and 90% in the data set on Pyrenophora teres.

For the molecule `Cn1nc(C(F)F)c(C(=O)N(Cc2c(Cl)cncc2Cl)C2CC2)c1Cl` [Example 116], the logP in data set [1] (setting [2]) is recorded as 2.64. Moreover, the Efficacy with Alternaria solani was determined as 90%; with Pyrenophora teres, 95%.

In data set [1] (setting [2]), `Cn1nc(C(F)F)c(C(=O)N(Cc2ccc(Cl)nc2)C2CC2)c1F` [Example 67] gave a logP of 2.25. In addition, the Efficacy was found to be 95% with Alternaria solani and 90% in the data set on Pyrenophora teres.

In the case of `CN(Cc1ccc2nsnc2c1)C(=O)c1c(C(F)F)nn(C)c1F` [Example 100], the logP in data set [1] (setting [2]) was determined as 2.17. This molecule had an Efficacy in the data set with Alternaria solani of 95%.

`Cn1nc(C(F)F)c(C(=O)N(Cc2cc(Cl)nc3ccccc23)C2CC2)c1Cl` [Example 139]: in data set [1] (setting [2]), the logP turned out to be 3.09. In the data set on Pyrenophora teres, this molecule displayed an Efficacy of 90%.

With `Cn1nc(C(F)F)c(C(=O)NC2(c3cc4ccccc4o3)CCCC2)c1F` [Example 75], the logP in data set [1] (setting [2]) stood at 3.52. Moreover, the results for the Efficacy in the data set with Alternaria solani and in the data set on Pyrenophora teres were 70% and 89%, respectively.

For the molecule `CN(Cc1nc(-c2ccccc2)no1)C(=O)c1c(C(F)F)nn(C)c1F` [Example 114], the logP in data set [1] (setting [2]) worked out at 2.58. The Efficacy in the data set with Alternaria solani and in the data set on Pyrenophora teres was 95% in each case.

Molecule `Cn1nc(C(F)F)c(C(=O)N(Cc2cc(-c3ccccc3)no2)C2CC2)c1F` [Example 111] returned a logP in data set [1] (setting [2]) of 2.92. Also, the Efficacy with Alternaria solani is recorded as 95%; with Pyrenophora teres it was 100%.

As for `Cn1nc(C(F)F)c(C(=O)N(Cc2ccco2)C2CC2)c1F` [Example 5], the logP in data set [1] (setting [2]) stood at 2.32. Further, the Efficacy in the data set with Alternaria solani was 80%; with Pyrenophora teres it was 95%.

`Cc1c(CN(C(=O)c2c(C(F)F)nn(C)c2Cl)C2CC2)sc2ccccc12` [Example 123] had a logP in data set [1] (setting [2]) of 3.74. Also, the Efficacy in the data set with Pyrenophora teres is on record as 90%.

Take `CN(Cc1cc(-c2ccccc2)no1)C(=O)c1c(C(F)F)nn(C)c1F` [Example 110]: the logP in data set [1] (setting [2]) came to 2.51. In addition, the Efficacy in the data set with Pyrenophora teres is 100%.

As to `Cc1ccsc1CN(C)C(=O)c1c(C(F)F)nn(C)c1F` [Example 42], the logP in data set [1] (setting [2]) is 2.44. Further, the Efficacy in the data set on Alternaria solani was 70%.

For `Cn1nc(C(F)F)c(C(=O)NCc2csc3ccccc23)c1F` [Example 88], in data set [1] (setting [2]), the logP is 2.73. In addition, the Efficacy in the data set on Alternaria solani is recorded as 78%.

In data set [1] (setting [2]), `Cn1nc(C(F)F)c(C(=O)N(Cc2cc3ccccc3o2)C2CC2)c1Cl` [Example 72] showed a logP of 3.21. Further, the Efficacy with Pyrenophora teres worked out at 90%.

Regarding `Cn1nc(C(F)F)c(C(=O)NC2CCCc3sccc32)c1F` (stereo not shown) [Example 104], the logP in data set [1] (setting [2]) is 2.73. In the data set with Alternaria solani, this molecule gave an Efficacy of 94%.

Consider `Cn1nc(C(F)F)c(C(=O)NCc2cc3ccccc3s2)c1Cl` [Example 83], for which, in data set [1] (setting [2]), the logP is given as 2.92. Besides, the Efficacy with Alternaria solani is recorded as 94%.

The molecule `CN(Cc1cc(-c2cc(F)c(F)c(F)c2)no1)C(=O)c1c(C(F)F)nn(C)c1F` [Example 164] gave a logP in data set [1] (setting [2]) of 3.11. In the data set with Pyrenophora teres, this molecule returned an Efficacy of 100%.

As to `Cn1nc(C(F)F)c(C(=O)N(Cc2cc(C(F)(F)F)nc3ccccc23)C2CC2)c1Cl` [Example 160], in data set [1] (setting [2]), the logP is given as 3.72. In the data set with Pyrenophora teres, this molecule gave an Efficacy of 90%.

The molecule `Cn1nc(C(F)F)c(C(=O)N(Cc2cc(Cl)nc3ccccc23)C2CC2)c1F` [Example 138] returned a logP in data set [1] (setting [2]) of 2.92. The molecule further showed an Efficacy with Pyrenophora teres of 100%.

Take `Cn1nc(C(F)F)c(C(=O)N(Cc2cccnc2)C2CCCCCC2)c1Cl` [Example 15]: the logP in data set [1] (setting [2]) is reported as 1.76. Further, the Efficacy with Pyrenophora teres was 75%.

`Cn1nc(C(F)F)c(C(=O)N(Cc2cc(-c3ccc(Cl)cc3)no2)C2CC2)c1Cl` [Example 154]: the logP in data set [1] (setting [2]) stood at 3.59. In the data set with Pyrenophora teres, this molecule gave an Efficacy of 100%.

The molecule `Cc1occc1C1(NC(=O)c2c(C(F)F)nn(C)c2Cl)CCCC1` [Example 23] had a logP in data set [1] (setting [2]) of 3.11. Besides, the Efficacy in the data set on Pyrenophora teres is 100%.

Molecule `Cc1ccsc1CN(C(=O)c1c(C(F)F)nn(C)c1Cl)C1CCCC1` [Example 37] registered a logP in data set [1] (setting [2]) of 3.61. Further, the Efficacy with Alternaria solani is listed as 80%.

`CCN(Cc1nonc1C)C(=O)c1c(C(F)F)nn(C)c1F` [Example 28] registered a logP in data set [1] (setting [2]) of 2.05. Also, the Efficacy in the data set with Alternaria solani is on record as 90%.

For `CC(C)Oc1ccc(CN(C)C(=O)c2c(C(F)F)nn(C)c2F)cn1` [Example 102], the logP in data set [1] (setting [2]) was 2.45. This molecule gave an Efficacy in the data set on Pyrenophora teres of 70%.

For the molecule `Cn1nc(C(F)F)c(C(=O)N(Cc2ccnc3cc(Cl)cc(Cl)c23)C2CC2)c1Cl` [Example 162], in data set [1] (setting [2]), the logP was found to be 3.57. Also, in the data set with Pyrenophora teres, the Efficacy was determined as 94%.

Molecule `CN(Cc1cnn(-c2ccccc2)c1)C(=O)c1c(C(F)F)nn(C)c1Cl` [Example 108] displayed a logP in data set [1] (setting [2]) of 2.40. The Efficacy with Alternaria solani came to 90%.

`Cn1nc(C(F)F)c(C(=O)NC2CCCc3sccc32)c1Cl` (stereo not shown) [Example 103] registered a logP in data set [1] (setting [2]) of 2.90. Also, the Efficacy with Alternaria solani is on record as 94%.

For the molecule `Cc1cc(C(C)N(C(=O)c2c(C(F)F)nn(C)c2F)C2CC2)c(C)o1` (stereo not shown) [Example 35], the logP in data set [1] (setting [2]) stood at 3.21. Further, in the data set with Pyrenophora teres, the Efficacy was 100%.

`Cn1nc(C(F)F)c(C(=O)N(Cc2cccs2)C2CC2)c1Cl` [Example 31] registered a logP in data set [1] (setting [2]) of 2.73. Besides, the Efficacy in the data set on Pyrenophora teres came out at 100%.

The molecule `Cc1ccoc1CN(C)C(=O)c1c(C(F)F)nn(C)c1Cl` [Example 21] gave a logP in data set [1] (setting [2]) of 2.32. The Efficacy in the data set on Pyrenophora teres turned out to be 80%.

Values taken from patent US9320276B2, “N-hetarylmethyl pyrazolylcarboxamides” (BAYER INTELLECTUAL PROPERTY GMBH, priority 2010, dated 2016).
